Reference: patent US20230398130A1, “METHODS AND COMPOSITIONS FOR DIFFERENTIATING STEM CELLS” (Massachusetts Institute of Technology, priority 2020, published 2023)

Legend:
[1] = tested on: ISC-enriched organoids; assay: Primary screen, 384-well 2.5-D organoid differentiation (ENR+CD, 6 days, Target Selective Inhibitor Library, vs whole-plate median): ATP (CellTiter-Glo 3D, CTG); settings: primary screen; for Dose.FC.CTG (log 2 fold change): vs plate median; for Dose.FC.CTG: FC vs plate median; for Z.CTG: standard z score
[2] = tested on: ISC-enriched organoids; assay: Primary screen, 384-well 2.5-D organoid differentiation (ENR+CD, 6 days): carbachol-induced lysozyme secretion (LYZ.S); format: cell-based, murine; settings: primary screen; for Dose.FC.LYZ.S (log 2 fold change): vs plate median; for Dose.FC.LYZ.S: FC vs plate median
From the text: (§1) High-throughput screening.

[3] = tested on: ISC-enriched organoids; assay: Primary screen, 384-well 2.5-D organoid differentiation (ENR+CD, 6 days): basal lysozyme secretion (LYZ.NS); format: cell-based, murine; settings: primary screen; for Dose.FC.LYZ.NS (log 2 fold change): vs plate median; for Dose.FC.LYZ.NS: FC vs plate median; for Z.LYZ.NS: standard z score
From the text: as §1

Compound | Z.CTG (standard z score) ([1]; Dose 0.08 uM) | Dose.FC.CTG (log 2 fold change) ([1]; Dose 0.08 uM) | Z.CTG (standard z score) ([1]; Dose 0.40 uM) | Dose.FC.CTG (log 2 fold change) ([1]; Dose 0.40 uM) | Z.CTG (standard z score) ([1]; Dose 2.00 uM) | Dose.FC.CTG (log 2 fold change) ([1]; Dose 2.00 uM) | Z.CTG (standard z score) ([1]; Dose 10.00 uM) | Dose.FC.CTG (log 2 fold change) ([1]; Dose 10.00 uM) | Dose.FC.LYZ.S (log 2 fold change) ([2]; Dose 0.08 uM) | Dose.FC.LYZ.S (log 2 fold change) ([2]; Dose 0.40 uM) | Dose.FC.LYZ.S (log 2 fold change) ([2]; Dose 2.00 uM) | Dose.FC.LYZ.S (log 2 fold change) ([2]; Dose 10.00 uM) | Z.LYZ.NS (standard z score) ([3]; Dose 0.08 uM) | Dose.FC.LYZ.NS (log 2 fold change) ([3]; Dose 0.08 uM) | Z.LYZ.NS (standard z score) ([3]; Dose 0.40 uM) | Dose.FC.LYZ.NS (log 2 fold change) ([3]; Dose 0.40 uM) | Z.LYZ.NS (standard z score) ([3]; Dose 2.00 uM) | Dose.FC.LYZ.NS (log 2 fold change) ([3]; Dose 2.00 uM) | Z.LYZ.NS (standard z score) ([3]; Dose 10.00 uM) | Dose.FC.LYZ.NS (log 2 fold change) ([3]; Dose 10.00 uM) | further results
Cc1cc(Nc2ccc(NC(=O)c3ccc(Nc4ccnc5ccccc45)cc3)cc2)nc(N)n1 [SGI-1027] | 0.583 | 0.244 | 0.712 | 0.298 | 0.412 | 0.172 | 0.125 | 0.052 | 0.060 | 0.145 | 0.094 | 0.018 | 0.528 | 0.061 | 0.735 | 0.084 | 1.123 | 0.129 | −0.046 | −0.005 | –
O=C(Nc1ccncc1)c1cc([N+](=O)[O-])ccc1Cl [T0070907] | 0.267 | 0.112 | 0.062 | 0.026 | 0.119 | 0.050 | −1.806 | −0.756 | −0.005 | −0.001 | 0.081 | −0.312 | 0.084 | 0.010 | −0.029 | −0.003 | 0.373 | 0.043 | −1.897 | −0.218 | –
C[C@@H](Oc1cc(-n2cnc3ccc(CN4CCN(C)CC4)cc32)sc1C(N)=O)c1ccccc1C(F)(F)F [GSK461364] | – | – | – | – | – | – | – | – | – | – | – | – | – | – | – | – | – | – | – | – | Dose.FC.CTG ([1]; Dose 0.08 uM): 0.160 log 2 fold change; Z.CTG ([1]; Dose 0.08 uM): 0.383; Dose.FC.CTG ([1]; Dose 0.40 uM): −0.154 log 2 fold change; Z.CTG ([1]; Dose 0.40 uM): −0.368; Dose.FC.CTG ([1]; Dose 2.00 uM): −0.628 log 2 fold change; Z.CTG ([1]; Dose 2.00 uM): −1.500; Dose.FC.CTG ([1]; Dose 10.00 uM): −0.621 log 2 fold change; Z.CTG ([1]; Dose 10.00 uM): −1.484; Dose.FC.LYZ.S ([2]; Dose 0.08 uM): 0.112 log 2 fold change; Dose.FC.LYZ.S ([2]; Dose 0.40 uM): −0.093 log 2 fold change; Dose.FC.LYZ.S ([2]; Dose 2.00 uM): −0.352 log 2 fold change; Dose.FC.LYZ.S ([2]; Dose 10.00 uM): −0.390 log 2 fold change; Dose.FC.LYZ.NS ([3]; Dose 0.08 uM): 0.078 log 2 fold change; Z.LYZ.NS ([3]; Dose 0.08 uM): 0.682; Dose.FC.LYZ.NS ([3]; Dose 0.40 uM): −0.096 log 2 fold change; Z.LYZ.NS ([3]; Dose 0.40 uM): −0.834; Dose.FC.LYZ.NS ([3]; Dose 2.00 uM): −0.246 log 2 fold change; Z.LYZ.NS ([3]; Dose 2.00 uM): −2.138; Dose.FC.LYZ.NS ([3]; Dose 10.00 uM): −0.287 log 2 fold change; Z.LYZ.NS ([3]; Dose 10.00 uM): −2.498
CC(C)(C)c1cnc(CSc2cnc(NC(=O)C3CCNCC3)s2)o1 [SNS-032 (BMS-387032)] | −0.180 | −0.075 | −0.198 | −0.083 | −2.186 | −0.915 | −2.411 | −1.009 | 0.070 | −0.206 | −0.301 | −0.361 | 0.428 | 0.049 | −1.241 | −0.143 | −2.399 | −0.276 | −2.214 | −0.254 | –
CCOC(=O)c1ccc(N2NC(=O)/C(=C/c3ccc([N+](=O)[O-])o3)C2=O)cc1 [PYR-41] | 0.609 | 0.255 | 0.762 | 0.319 | 0.385 | 0.161 | 0.229 | 0.096 | 0.193 | 0.076 | 0.049 | 0.129 | 1.305 | 0.150 | 0.777 | 0.089 | 0.568 | 0.065 | 0.861 | 0.099 | –
